ChEMBL document CHEMBL1132768, “Differential antibacterial activity of moenomycin analogues on gram-positive bacteria” (Bioorg Med Chem Lett, 2000)
In brackets after ≈: the same amount, converted by molar mass.

Tests used:
Staphylococcus aureus [1] = test: Compound was evaluated for its antibacterial activity against Staphylococcus aureus ATCC 29213; type: functional
Enterococcus faecium [2] = test: Compound was evaluated for its antibacterial activity against Enterococcus faecium RLA1 strain resistant to ampicillin; type: functional
Staphylococcus aureus [3] = test: Compound was evaluated for bactericidal activity against Staphylococcus aureus; type: functional
Enterococcus faecium [4] = test: Compound was evaluated for its antibacterial activity against Enterococcus faecium CL4931 (Van A); type: functional
[5] = tested on: Staphylococcus epidermidis; test: Compound was evaluated for its antibacterial activity against Staphylococcus epidermidis ATCC 12228; type: functional
Enterococcus faecium [6] = test: Compound was evaluated for its antibacterial activity against Enterococcus faecium ATCC 49624; type: functional
Escherichia coli [7] = test: Compound was evaluated for inhibition of peptidoglycan synthesis in Escherichia coli using UDP-[14C]-GlcNAc radioligand; type: functional, organism-based
Enterococcus faecalis [8] = test: Compound was evaluated for its antibacterial activity against Enterococcus faecalis CL5244 (Van B); type: functional
Enterococcus faecalis [9] = test: Compound was evaluated for its antibacterial activity against Enterococcus faecalis ATCC 29212; type: functional
[10] = tested on: Staphylococcus epidermidis; test: Compound was evaluated for bactericidal activity against Staphylococcus epidermidis; type: functional
Escherichia coli [11] = test: Compound was evaluated for inhibition of peptidoglycan synthesis in Escherichia coli using [14C]-lipid II radioligand; type: functional, organism-based
Enterococcus faecalis [12] = test: Compound was evaluated for bactericidal activity against Enterococcus faecalis; type: functional; set-up: concentration or dose not given beside the values
Enterococcus faecalis [13] = test: Compound was evaluated for inhibition of peptidoglycan synthesis in Enterococcus faecalis using [14C]lysine radioligand; type: functional, organism-based
Escherichia coli [14] = test: Compound was evaluated for its antibacterial activity against Escherichia coli BAS849; type: functional
Enterococcus faecalis [15] = test: Compound was evaluated for its antibacterial activity against Enterococcus faecalis CL4877 (Van B); type: functional
[16] = tested on: Staphylococcus epidermidis; test: Compound was evaluated for its antibacterial activity against […] ATCC 12228; type: functional
[17] = tested on: Staphylococcus epidermidis; test: Compound was evaluated for bactericidal activity against […]; type: functional
Enterococcus faecalis [18] = test: Compound was evaluated for inhibition of peptidoglycan synthesis in Enterococcus faecalis using [14C]lysine radioligand; not applicable; type: functional, organism-based

CC(=O)N[C@@H]1[C@H](O[C@H]2[C@@H](O)[C@H](NC(C)=O)[C@H](OC3[C@@H](OP(=O)(O)OC[C@@H](OCCC(C)CCCCC(C)(C)CCC(C)CCC(C)CCCC(C)C)C(=O)O)O[C@@H](C(N)=O)[C@@](C)(O)[C@@H]3OC(N)=O)O[C@H]2CO[C@@H]2O[C@@H](CO)[C@@H](O)[C@H](O)[C@@H]2O)O[C@@H](C)[C@@H](O[C@@H]2O[C@@H](C(=O)NC3=C(O)CCC3=O)[C@H](O)[C@H](O)[C@@H]2O)[C@@H]1O (stereo partly specified)
MIC (Staphylococcus aureus [1]): 0.16 µg/mL (≈ 0.1 µM)
MIC (Enterococcus faecium [2]): 0.25 µg/mL (≈ 0.157 µM)
Survival (Staphylococcus aureus [3]): 62%
MIC (Enterococcus faecium [4]): 0.78 µg/mL (≈ 0.49 µM)
MIC [5]: 0.31 µg/mL (≈ 0.195 µM)
MIC (Enterococcus faecium [6]): > 25 µg/mL
IC50 (Escherichia coli [7]): 8.1 nM
MIC (Enterococcus faecalis [8]): 0.25 µg/mL (≈ 0.157 µM)
MIC (Enterococcus faecalis [9]): 0.08 µg/mL (≈ 0.0502 µM)
Survival [10]: 0.33%
IC50 (Escherichia coli [11]): 98 nM
Survival (Enterococcus faecalis [12]): 141%
IC50 (Enterococcus faecalis [13]): > 700000 nM
MIC (Escherichia coli [14]): 0.31 µg/mL (≈ 0.195 µM)
MIC (Enterococcus faecalis [15]): 0.25 µg/mL (≈ 0.157 µM)

CC(=O)N[C@@H]1[C@H](O[C@H]2[C@@H](O)[C@H](NC(C)=O)[C@H](O[C@@H]3[C@@H](OP(=O)(O)OC[C@@H](OCCC(C)CCCCC(C)(C)CCC(C)CCC(C)CCCC(C)C)C(=O)O)O[C@@H](C(N)=O)[C@@](C)(O)[C@@H]3OC(N)=O)O[C@H]2CO[C@@H]2O[C@@H](CO)[C@@H](O)[C@H](O)[C@@H]2O)O[C@@H](C)[C@@H](O[C@@H]2O[C@@H](C(N)=O)[C@H](O)[C@H](O)[C@@H]2O)[C@@H]1O (stereo partly specified)
MIC (Staphylococcus aureus [1]): 0.08 µg/mL (≈ 0.0535 µM)
MIC (Enterococcus faecium [2]): 0.25 µg/mL (≈ 0.167 µM)
Survival (Staphylococcus aureus [3]): 61%
MIC (Enterococcus faecium [4]): 0.39 µg/mL (≈ 0.261 µM)
MIC (Enterococcus faecium [6]): > 25 µg/mL
IC50 (Escherichia coli [7]): 8.6 nM
MIC [16]: 0.16 µg/mL (≈ 0.107 µM)
MIC (Enterococcus faecalis [8]): 0.25 µg/mL (≈ 0.167 µM)
MIC (Enterococcus faecalis [9]): 0.16 µg/mL (≈ 0.107 µM)
Survival [10]: 0.4%
IC50 (Escherichia coli [11]): 87 nM
Survival (Enterococcus faecalis [12]): 176%
IC50 (Enterococcus faecalis [13]): > 700000 nM
MIC (Escherichia coli [14]): 0.08 µg/mL (≈ 0.0535 µM)
MIC (Enterococcus faecalis [15]): 0.25 µg/mL (≈ 0.167 µM)

CCCCCCCCCCCCO[C@H](COP(=O)(O)OC1OC(C(N)=O)C(O)C(NC(=O)Nc2ccc(Cl)c(C(F)(F)F)c2)C1OC1OC(CO)C(O)C(O)C1NC(=O)c1cccc(C(F)(F)F)c1)C(=O)O (stereo partly specified)
MIC (Staphylococcus aureus [1]): 6.25 µg/mL (≈ 5.77 µM)
MIC (Enterococcus faecium [2]): 6.25 µg/mL (≈ 5.77 µM)
Survival (Staphylococcus aureus [3]): <5e-05%
MIC (Enterococcus faecium [4]): 6.25 µg/mL (≈ 5.77 µM)
MIC (Enterococcus faecium [6]): 6.25 µg/mL (≈ 5.77 µM)
IC50 (Escherichia coli [7]): 9800 nM
MIC [16]: 6.25 µg/mL (≈ 5.77 µM)
MIC (Enterococcus faecalis [8]): 3.13 µg/mL (≈ 2.89 µM)
MIC (Enterococcus faecalis [9]): 6.25 µg/mL (≈ 5.77 µM)
IC50 (Escherichia coli [11]): 100000 nM
Survival (Enterococcus faecalis [12]): 0.00024%
IC50 (Enterococcus faecalis [13]): 2500 nM
MIC (Escherichia coli [14]): 12.5 µg/mL (≈ 11.5 µM)
MIC (Enterococcus faecalis [15]): 3.13 µg/mL (≈ 2.89 µM)
Survival [17]: <5e-05%

CC(=O)NC1C(OC2C(CO)OC(OC3C(OP(=O)(O)OC[C@@H](OCCC(C)CCCCC(C)(C)CCC(C)CCC(C)CCCC(C)C)C(=O)O)OC(C(N)=O)C(C)(O)C3OC(N)=O)C(NC(C)=O)C2O)OC(C)C(O)C1O (stereo partly specified)
MIC (Staphylococcus aureus [1]): 0.63 µg/mL (≈ 0.543 µM)
MIC (Enterococcus faecium [2]): 1.56 µg/mL (≈ 1.35 µM)
Survival (Staphylococcus aureus [3]): 0.035%
MIC (Enterococcus faecium [4]): 1.56 µg/mL (≈ 1.35 µM)
MIC (Enterococcus faecium [6]): 25 µg/mL (≈ 21.6 µM)
IC50 (Escherichia coli [7]): 16 nM
MIC [16]: 0.53 µg/mL (≈ 0.457 µM)
MIC (Enterococcus faecalis [8]): 1.56 µg/mL (≈ 1.35 µM)
MIC (Enterococcus faecalis [9]): 0.78 µg/mL (≈ 0.673 µM)
Survival [10]: 0.022%
IC50 (Escherichia coli [11]): 131 nM
Survival (Enterococcus faecalis [12]): 147%
IC50 (Enterococcus faecalis [13]): 50400 nM
MIC (Escherichia coli [14]): 0.31 µg/mL (≈ 0.267 µM)
MIC (Enterococcus faecalis [15]): 1.56 µg/mL (≈ 1.35 µM)

CC(=O)NC1C(OC2C(OP(=O)(O)OC[C@@H](OCCC(C)CCCCC(C)(C)CCC(C)CCC(C)CCCC(C)C)C(=O)O)OC(C(N)=O)C(C)(O)C2OC(N)=O)OC(CO)C(O)C1O (stereo partly specified)
IC50 (Enterococcus faecalis [18]): Not Active
MIC (Staphylococcus aureus [1]): > 100 µg/mL
MIC (Enterococcus faecium [4]): > 100 µg/mL
MIC [5]: > 100 µg/mL
MIC (Enterococcus faecium [6]): > 100 µg/mL
IC50 (Escherichia coli [7]): 33 nM
MIC (Enterococcus faecalis [8]): > 100 µg/mL
MIC (Enterococcus faecalis [9]): > 100 µg/mL
IC50 (Escherichia coli [11]): 241 nM
MIC (Escherichia coli [14]): > 100 µg/mL
MIC (Enterococcus faecalis [15]): > 100 µg/mL

C=C(C/C=C(\C)CCC=C(C)C)CCC(C)(C)/C=C/CC/C(C)=C\CO[C@H](COP(=O)(O)O[C@H]1O[C@@H](C(N)=O)[C@@](C)(O)[C@H](OC(N)=O)[C@@H]1O[C@@H]1O[C@@H](CO[C@@H]2O[C@@H](CO)[C@@H](O)[C@H](O)[C@@H]2O)[C@@H](O[C@@H]2O[C@@H](C)[C@@H](O[C@@H]3O[C@@H](C(=O)NC4=C(O)CCC4=O)[C@H](O)[C@H](O)[C@@H]3O)[C@H](O)[C@@H]2NC(C)=O)[C@@H](O)[C@@H]1NC(C)=O)C(=O)O [MOENOMYCIN]
MIC (Staphylococcus aureus [1]): 0.05 µg/mL (≈ 0.0316 µM)
MIC (Enterococcus faecium [2]): 0.78 µg/mL (≈ 0.493 µM)
Survival (Staphylococcus aureus [3]): 125%
MIC (Enterococcus faecium [4]): 0.25 µg/mL (≈ 0.158 µM)
MIC (Enterococcus faecium [6]): > 200 µg/mL
IC50 (Escherichia coli [7]): 15.6 nM
MIC [16]: 0.025 µg/mL (≈ 0.0158 µM)
MIC (Enterococcus faecalis [8]): 0.06 µg/mL (≈ 0.0379 µM)
MIC (Enterococcus faecalis [9]): 0.078 µg/mL (≈ 0.0493 µM)
Survival [10]: 0.48%
IC50 (Escherichia coli [11]): 31 nM
Survival (Enterococcus faecalis [12]): 143%
IC50 (Enterococcus faecalis [13]): > 700000 nM
MIC (Escherichia coli [14]): 0.025 µg/mL (≈ 0.0158 µM)
MIC (Enterococcus faecalis [15]): 0.13 µg/mL (≈ 0.0821 µM)

CN[C@H](CC(C)C)C(=O)N[C@H]1C(=O)N[C@@H](CC(N)=O)C(=O)N[C@H]2C(=O)N[C@H]3C(=O)N[C@H](C(=O)N[C@H](C(=O)O)c4cc(O)cc(O)c4-c4cc3ccc4O)[C@H](O)c3ccc(c(Cl)c3)Oc3cc2cc(c3O[C@@H]2O[C@H](CO)[C@@H](O)[C@H](O)[C@H]2O[C@H]2C[C@](C)(N)[C@H](O)[C@H](C)O2)Oc2ccc(cc2Cl)[C@H]1O [VANCOMYCIN]
MIC (Enterococcus faecium [2]): 0.78 µg/mL (≈ 0.538 µM)
MIC (Enterococcus faecium [4]): > 1250 µg/mL
MIC (Enterococcus faecium [6]): 0.39 µg/mL (≈ 0.269 µM)
IC50 (Escherichia coli [7]): 3700 nM
MIC (Enterococcus faecalis [8]): 25 µg/mL (≈ 17.3 µM)
MIC (Enterococcus faecalis [9]): 3.12 µg/mL (≈ 2.15 µM)
IC50 (Escherichia coli [11]): 4500 nM
IC50 (Enterococcus faecalis [13]): 2600 nM
MIC (Escherichia coli [14]): 0.78 µg/mL (≈ 0.538 µM)
MIC (Enterococcus faecalis [15]): 1250 µg/mL (≈ 863 µM)
